Laboratory results taken from patent publication US20250257075A1, “MACROCYCLIC INHIBITORS OF KRAS FOR THE TREATMENT OF CANCER” (Hoffmann-La Roche Inc., priority 2022, published 2025).

How the values were obtained:
[1] = test system: Miapaca-2 mutant cells KRAS G12C + H95N; assay: Stable KRAS mutant cell line viability assay (CTG), G12C + H95N; assay type: cell-based; conditions: Homo sapiens, MIA PaCa-2, 72 h, 3 d, CellTiter-Glo
Description: (§1) The aim of the study was to determine the potency and efficacy of compounds for cell proliferation using CellTiter-Glo® (CTG) Luminescent Cell Viability Assay (Promega Corp., Madison, WI). We cloned […] KRAS^G12C variant sequences with secondary mutations (V8A, V9Y, S17E, T58I, A59T, S65W, R68S, D69P, M72I, D92R, H95N, Y96D, Q99F, Q99W, Y96H, and F156L) into the Miapaca-2. Totally 14 stable Miapaca-2 mutant cell lines were established through lentivirus infection. For the cell viability assay, cells were dosed with compounds in a 9-point dose-response using a 4 fold dilution series at a top dose of 10 μM. KRAS mutant cells were maintained in DMEM+10% FBS+2.5% HI Horse serum+1% PS+1 μg/mL Puromycin and seeded into 96-well plates at 800-1,500 cells per well 24 h before compound addition and then incubated with compound for 3 d before assaying viability (CellTiter-Glo, Promega). Assays were performed in biological duplicates. Nonlinear regression curves were fitted using Xfit. IC50 (absolute IC50) is the dose at which the estimated viability is 50% relative to untreated wells.

[2] = test system: Miapaca-2 mutant cells KRAS G12C + Q99W; assay: Stable KRAS mutant cell line viability assay (CTG), G12C + Q99W; assay type: cell-based; conditions: Homo sapiens, MIA PaCa-2, 72 h, 3 d, CellTiter-Glo
Description: as §1

[3] = test system: Miapaca-2 mutant cells KRAS G12C + M72I; assay: Stable KRAS mutant cell line viability assay (CTG), G12C + M72I; assay type: cell-based; conditions: Homo sapiens, MIA PaCa-2, 72 h, 3 d, CellTiter-Glo
Description: as §1

[4] = test system: Miapaca-2 mutant cells KRAS G12C + D60P; assay: Stable KRAS mutant cell line viability assay (CTG), G12C + D60P; assay type: cell-based; conditions: Homo sapiens, MIA PaCa-2, 72 h, 3 d, CellTiter-Glo
[5] = test system: Miapaca-2 mutant cells KRAS G12C + F156L; assay: Stable KRAS mutant cell line viability assay (CTG), G12C + F156L; assay type: cell-based; conditions: Homo sapiens, MIA PaCa-2, 72 h, 3 d, CellTiter-Glo
Description: as §1

[6] = test system: Miapaca-2 mutant cells KRAS G12C + V9Y; assay: Stable KRAS mutant cell line viability assay (CTG), G12C + V9Y; assay type: cell-based; conditions: Homo sapiens, MIA PaCa-2, 72 h, 3 d, CellTiter-Glo
Description: as §1

[7] = test system: Miapaca-2 mutant cells KRAS G12C + Y96D; assay: Stable KRAS mutant cell line viability assay (CTG), G12C + Y96D; assay type: cell-based; conditions: Homo sapiens, MIA PaCa-2, 72 h, 3 d, CellTiter-Glo
Description: as §1

[8] = Single Dose Pharmacokinetics (SDPK) study in female BALB/c mice; assay type: in vivo; conditions: mouse; for clearance: 3 mg/kg, iv; for clearance / AUC(0-t) / Cmax: female BALB/c mice, plasma
Description: The purpose of this study was to determine the pharmacokinetics of selected compounds following single intravenous bolus or oral gavage administration in female BALB/c mice. Briefly, two groups of female BALB/c mice (available from Zhejiang Vital River Laboratory Animal Technology Co., Ltd. or Shanghai Lingchang Biotechnology Co., Ltd) (N=3/group) were treated with a single dose of compound intravenously at 3 mg/kg (IV) or orally at 30 mg/kg (PO). Blood samples were collected at 5 min (only for IV), 15 min, 30 min, 1 h, 2 h, 4 h, 7 h and 24 h post-dose. Blood samples were placed on ice until centrifugation to obtain plasma samples. The concentration of compound in plasma samples was determined using LC-MS/MS method. The pharmacokinetic parameters were calculated by non-compartmental analysis.

[9] = test system: Miapaca-2 mutant cells KRAS G12C + A59T; assay: Stable KRAS mutant cell line viability assay (CTG), G12C + A59T; assay type: cell-based; conditions: Homo sapiens, MIA PaCa-2, 72 h, 3 d, CellTiter-Glo
Description: as §1

[10] = test system: Miapaca-2 mutant cells KRAS G12C + S65W; assay: Stable KRAS mutant cell line viability assay (CTG), G12C + S65W; assay type: cell-based; conditions: Homo sapiens, MIA PaCa-2, 72 h, 3 d, CellTiter-Glo
Description: as §1

[11] = test system: Miapaca-2 mutant cells KRAS G12C + S17E; assay: Stable KRAS mutant cell line viability assay (CTG), G12C + S17E; assay type: cell-based; conditions: Homo sapiens, MIA PaCa-2, 72 h, 3 d, CellTiter-Glo
Description: as §1

[12] = test system: Miapaca-2 mutant cells KRAS G12C + R68S; assay: Stable KRAS mutant cell line viability assay (CTG), G12C + R68S; assay type: cell-based; conditions: Homo sapiens, MIA PaCa-2, 72 h, 3 d, CellTiter-Glo
Description: as §1

[13] = test system: Miapaca-2 mutant cells KRAS G12C + V8A; assay: Stable KRAS mutant cell line viability assay (CTG), G12C + V8A; assay type: cell-based; conditions: Homo sapiens, MIA PaCa-2, 72 h, 3 d, CellTiter-Glo
Description: as §1

[14] = test system: Miapaca-2 mutant cells KRAS G12C + D92R; assay: Stable KRAS mutant cell line viability assay (CTG), G12C + D92R; assay type: cell-based; conditions: Homo sapiens, MIA PaCa-2, 72 h, 3 d, CellTiter-Glo
Description: as §1

[15] = test system: Miapaca-2 mutant cells KRAS G12C + T58I; assay: Stable KRAS mutant cell line viability assay (CTG), G12C + T58I; assay type: cell-based; conditions: Homo sapiens, MIA PaCa-2, 72 h, 3 d, CellTiter-Glo
Description: as §1

Row | SMILES | IC50 [1] | IC50 [2] | IC50 [3] | IC50 [4] | IC50 [5] | IC50 [6] | IC50 [7] | AUC0-last relative to A168 ([8]; 30 mg/kg, po, versus A168) | Cmax relative to A168 ([8]; 30 mg/kg, po, versus A168) | clearance [8] | AUC(0-t) ([8]; 30 mg/kg, po) | Cmax ([8]; 30 mg/kg, po) | IC50 [9] | IC50 [10] | IC50 [11] | IC50 [12] | IC50 [13] | IC50 [14] | IC50 [15]
1 | CCn1c(-c2cc(N3CCOCC3)cnc2[C@H](C)OC)c2c3cc(c(F)cc31)-c1csc(n1)C[C@H](NC(=O)[C@H](C(C)C)N(C)C(=O)[C@H]1C[C@@H](C#CC(F)(F)F)C1)C(=O)N1CCC[C@H](N1)C(=O)OCC(C)(C)C2 (atropisomer, axis not shown; (M)) [Example 11, cis-N-[(1S)-1-[[(7S,13S)-21-ethyl-24-fluoro-(20M)-20-[2-[(1S)-1-methoxyethyl]-5-morpholino-3-pyridyl]-17,17-dimethyl-8,14-dioxo-15-oxa-4-thia-9,21,27,28-tetrazapentacyclo[17.5.2.1^2,5.1^9,13.0^22,26]octacosa-1(25),2,5(28),19,22(26),23-hexaen-7-yl]carbamoyl]-2-methyl-propyl]-N-methyl-3-(3,3,3-trifluoroprop-1-ynyl)cyclobutanecarboxamide] | 0.003 µM | 0.003 µM | 0.001 µM | 0.097 µM | 0.003 µM | 0.003 µM | 0.006 µM | 1.5 folds | ~2 folds | 14.2 mL/min/kg | 2180 ng·h/mL | 1510 ng/mL | 0.032 µM | 0.003 µM | 0.003 µM | 0.022 µM | 0.001 µM | 0.002 µM | 0.003 µM
2 | CC#CC(=O)N1CC[C@H](C(=O)N(C)[C@H](C(=O)N[C@H]2Cc3nc(cs3)-c3ccc4c(c3)c(c(-c3cccnc3[C@H](C)OC)n4CC)CC(C)(C)COC(=O)[C@@H]3CCCN(N3)C2=O)C(C)C)C1 [Example A168, reference compound] | – | – | – | – | – | – | – | – | – | 77 mL/min/kg | 1580 ng·h/mL | 794 ng/mL | – | – | – | – | – | – | –
